The source of these data is US20040248964A1, “Analgesic uses of norketamine and ketamine/norketamine prodrugs” (priority 2002, published 2004).

For data set [1] the following is noted: cited from earlier work.
Data set [2] is described as follows: Nasal spray self-administration of norketamine in the same patient.
In the next data set the test system is NMDA receptor. The following applies: cited from earlier work.
Data set [3] can be described thus: Norketamine i.v. drip in a patient with intractable bladder pain, pain level subjectively evaluated by the patient. The data set is classed as in vivo, human. As to the method: A patient, weighing approximately 60 kg, presents with intractable bladder pain (interstitial ceptitis), which has been diagnosed previously. Pain management in this patient consists of 100 mg Demoral every 3 hours; Dilaudid 2-4 mg every 4 hours; Dalmane 30 mg per day; Duralgesic patches (fentanyl transdermal patches); bladder washes with Pyridium (phenaropyridine HCl), which is a urinary tract analgesic; and belladonna and opiate suppositories. In addition to the pain medication, the patient takes Zanax and Tagamet to alleviate gastric distress, and Compazine (an anti-emetic) to counteract nausea. Gastric distress and nausea in this patient result from the pain medication.
Despite the dosages and range of pain medications used by this patient, satisfactory pain management is not achieved.
A diagnostic pre-sacral, or ilio-hypogastric, nerve block is performed on this patient to alleviate the pain. Unfortunately, the effect of the block is temporary, and the block is associated with significant motor weakness. After the block wears off, the patient states that they are unable to function, as the most mundane activities are exhausting.
Norketamine (10 mg/cc) drip was administered i.v. over one hour, for a total dose of 40 mg norketamine. […] About 1 hour after norketamine infusion is discontinued, the patient reports that the level of pain has increased to about #15, and thereafter rapidly to its previous level. The patient continues to take the other pain medications without effect.

In another data set the test system is rats. As to conditions: intravenously or intraspinally; cited from earlier work.

What is called melting point is the temperature, or range, at which the solid turns liquid.

Consider `CN[C@]1(c2ccccc2Cl)CCCCC1=O` [S-ketamine, reference compound], for which the “potency relative to R-ketamine” value in data set [1] (in vivo) is reported as “twice as potent”.

The compound `CC(C)OC(=O)NC1(c2ccccc2Cl)CCCCC1=O` (stereo not drawn) registered a melting point of 124 to 126 °C.

In turn, `CCCCOC(=O)NC1(c2ccccc2Cl)CCCCC1=O` (stereo not drawn) displayed a melting point of 130 to 132 °C.

In the case of `NC1(c2ccccc2Cl)CCCCC1=O` (stereo not drawn) [Norketamine, 2-(2-chlorophenyl)-2-amino-cyclohexanone], in data set [2] (nasal administration), the “control of breakthrough pain” value is on record as “particularly effective”. In addition, the “pain management with nasal administration” value in data set [2] (nasal spray 100 mg/ml, 16 mg per spray, 1-2 sprays for severe pain) is listed as “remarkable pain management”. The “anesthetic and analgesic potency relative to ketamine” value in data set [1] (speculated) was “one third”. Also, the “binding to the NMDA receptor compared with S- or R-ketamine” value with NMDA receptor is “less tightly”. For the same compound, the “reduction of the pain level by a factor” value in data set [3] (10 mg/cc drip i.v. over one hour, total dose 40 mg, from #20, subjectively evaluated by the patient) is 2. Moreover, the “pain level about 1 hour after norketamine infusion is discontinued” value in data set [3] (thereafter rapidly to its previous level) was around 15. Besides, the “pain level after norketamine infusion” value in data set [3] (total dose 40 mg i.v. over one hour, level before #20) is listed as 10-12. For the same compound, in the data set on rats, the “adverse sequelae compared with an equal dose of ketamine” value is recorded as “fewer of the adverse sequelae”.

`CCOC(=O)NC1(c2ccccc2Cl)CCCCC1=O` (stereo not drawn) had a melting point of 112 to 114 °C.
